Drawing on ChEMBL document CHEMBL1153623, “Synthesis and bioactivity of substituted indan-1-ylideneaminoguanidine derivatives” (Eur J Med Chem, 2009), this text covers Activity, IC50 and Ratio IC50 for 23 compounds.

Assay [1] deals with Rattus norvegicus. The assay is described as follows: Cardioprotective activity against ischemic Sprague-Dawley rat heart assessed as serum creatine kinase level at 1 mg/kg, iv treated 5 mins before left anterior descending coronary artery occlusion measured after 2 hrs of reperfusion by Evans staining. In kind it is functional.
The test system of assay [2] is Rattus norvegicus. The assay is described as follows: Cardioprotective activity against ischemic Sprague-Dawley rat heart assessed as reduction in infarct size at 0.25 mg/kg, iv treated 5 mins before left anterior descending coronary artery occlusion measured after 2 hrs of reperfusion by Evans staining. In kind it is functional. On the set-up: scale not given: the % may be the effect or the level left.

Assay [3] has as its system Rattus norvegicus. The assay is described as follows: Cardioprotective activity against ischemic Sprague-Dawley rat heart assessed as reduction in infarct size at 1 mg/kg, iv treated 5 mins before left anterior descending coronary artery occlusion measured after 2 hrs of reperfusion by Evans staining. The class given is functional. Set-up: scale not given: the % may be the effect or the level left.

Assay [4] deals with Rattus norvegicus. The assay is described as follows: Cardioprotective activity against ischemic Sprague-Dawley rat heart assessed as serum creatine kinase level at 0.25 mg/kg, iv treated 5 mins before left anterior descending coronary artery occlusion measured after 2 hrs of reperfusion by Evans staining. The class given is functional.
The target of assay [5] is Sodium/hydrogen exchanger 1 (Rattus norvegicus, UniProt P26431). The experiment in a line: Inhibition of NHE1 in Sprague-Dawley rat platelet-rich plasma by optical swelling assay.
Assay [6] concerns Rattus norvegicus. The assay is described as follows: Cardioprotective activity against ischemic Sprague-Dawley rat heart assessed as serum creatine kinase level at 0.5 mg/kg, iv treated 5 mins before left anterior descending coronary artery occlusion measured after 2 hrs of reperfusion by Evans staining. In kind it is functional.
For assay [7], the system named is Rattus norvegicus. The assay is described as follows: Cardioprotective activity against ischemic Sprague-Dawley rat heart assessed as reduction in infarct size at 0.5 mg/kg, iv treated 5 mins before left anterior descending coronary artery occlusion measured after 2 hrs of reperfusion by Evans staining. The class given is functional. On the set-up: scale not given: the % may be the effect or the level left.

Assay [8] concerns the target Sodium/hydrogen exchanger 1 (Rattus norvegicus) (UniProt P26431). The experiment in a line: Ratio of cariporide IC50 to compound IC50 for NHE1 in Sprague-Dawley rat platelet-rich plasma by optical swelling assay.

Sodium/hydrogen exchanger 1, sequence (P26431 whole entry, the tested form may be a part): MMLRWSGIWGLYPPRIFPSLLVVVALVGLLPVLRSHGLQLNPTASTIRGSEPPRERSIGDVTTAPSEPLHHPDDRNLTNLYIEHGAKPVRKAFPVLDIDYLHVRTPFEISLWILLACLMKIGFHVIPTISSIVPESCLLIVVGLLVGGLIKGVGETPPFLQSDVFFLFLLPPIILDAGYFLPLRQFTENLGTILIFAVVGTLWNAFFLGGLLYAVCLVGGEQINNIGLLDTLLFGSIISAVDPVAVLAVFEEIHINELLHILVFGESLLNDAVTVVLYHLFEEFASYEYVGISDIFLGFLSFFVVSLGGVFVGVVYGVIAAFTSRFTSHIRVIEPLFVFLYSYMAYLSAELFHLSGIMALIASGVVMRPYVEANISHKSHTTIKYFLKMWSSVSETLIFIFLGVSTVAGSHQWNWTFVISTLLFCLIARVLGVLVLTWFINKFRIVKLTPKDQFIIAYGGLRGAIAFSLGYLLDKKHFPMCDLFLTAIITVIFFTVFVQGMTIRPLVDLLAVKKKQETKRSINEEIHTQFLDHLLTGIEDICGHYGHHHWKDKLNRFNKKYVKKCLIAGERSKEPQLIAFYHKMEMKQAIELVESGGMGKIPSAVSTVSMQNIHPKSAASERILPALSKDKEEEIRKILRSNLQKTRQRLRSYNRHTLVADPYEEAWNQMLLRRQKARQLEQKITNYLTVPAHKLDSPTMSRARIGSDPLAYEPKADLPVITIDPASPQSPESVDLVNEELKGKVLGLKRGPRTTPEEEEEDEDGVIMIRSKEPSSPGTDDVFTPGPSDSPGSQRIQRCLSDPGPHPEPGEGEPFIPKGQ
Sodium/hydrogen exchanger 1 (Rattus norvegicus), sequence (P26431 whole entry): as the sequence (P26431 whole entry, the tested form may be a part) above

For orientation: IC50 means the concentration at which inhibition is half-maximal. For `Br.COc1ccc2[nH]c(SC3Cc4cc(Cl)ccc4/C3=N\N=C(N)N)nc2c1.Cl` (configuration not stated), the Activity with Rattus norvegicus [1] came out at 2.82 U/ml; in the assay on Rattus norvegicus [2], 42.27%; with Rattus norvegicus [3] it was 36.16%; with Rattus norvegicus [4] it was 3.72 U/ml; with Rattus norvegicus [6], 3.34 U/ml; in the assay with Rattus norvegicus [7], 40.87%. The compound also showed a half-inhibitory concentration (IC50) in assay [5] of 0.00094 µM. Further, the Ratio IC50 in assay [8] is 69.

In assay [5], `NC(N)=N/N=C1\c2ccc([N+](=O)[O-])cc2CC1Sc1nc2ccccc2[nH]1` (configuration not stated) returned a concentration for half-maximal inhibition (IC50) of 0.00117 µM.

Consider `NC(N)=N/N=C1\c2cccc(Cl)c2CC1Sc1nc2ccccc2s1` (configuration not stated), for which the IC50 in assay [5] is 0.0203 µM.

Compound `NC(N)=N/N=C1\c2ccc(Cl)cc2CC1Sc1nc2ccccc2s1` (configuration not stated) had an IC50 in assay [5] of 0.00234 µM.

`COc1ccc2c(c1)/C(=N\N=C(N)N)C(Sc1nc3ccccc3s1)C2.Cl` (configuration not stated): the Activity in the assay on Rattus norvegicus [1] is on record as 3.38 U/ml; in the assay with Rattus norvegicus [3], 43.24%. This compound registered an IC50 in assay [5] of 0.0019 µM.

Regarding `Cl.NC(N)=N/N=C1\c2ccccc2CC1Sc1nc2cc([N+](=O)[O-])ccc2[nH]1` (configuration not stated), the Activity in the assay with Rattus norvegicus [1] is 4.12 U/ml; in the assay on Rattus norvegicus [3] it was 49.18%. Besides, in assay [5], the IC50 was found to be 0.00174 µM.

In turn, `NC(N)=N/N=C1\c2ccc(Cl)cc2CC1Sc1nc2cc([N+](=O)[O-])ccc2[nH]1` (configuration not stated) displayed a half-maximal inhibitory concentration (IC50) in assay [5] of 0.0122 µM.

In assay [5], `COc1cc2c(cc1OC)/C(=N\N=C(N)N)C(Sc1nc3ccccc3[nH]1)C2` (configuration not stated) gave a half-maximal inhibitory concentration (IC50) of 0.0112 µM.

In assay [5], `COc1cc2c(cc1OC)/C(=N\N=C(N)N)C(Sc1nc3ccccc3s1)C2` (configuration not stated) displayed an IC50 of 0.00244 µM.

`COc1ccc2[nH]c(SC3Cc4ccccc4/C3=N\N=C(N)N)nc2c1` (configuration not stated) registered an IC50 in assay [5] of 0.0168 µM.

On to `CC(C)c1ccc(C(=O)N=C(N)N)cc1S(C)(=O)=O` [CARIPORIDE], for which the Activity amounted to 3.53 U/ml with Rattus norvegicus [1] and 45.74% in the assay with Rattus norvegicus [3].

Compound `NC(N)=N/N=C1\c2ccc(Cl)cc2CC1Sc1nc2ccccc2[nH]1` (configuration not stated) had an IC50 in assay [5] of 0.0214 µM.

`NC(N)=N/N=C1\c2cc(F)ccc2CC1Sc1nc2cc([N+](=O)[O-])ccc2[nH]1` (configuration not stated) returned an IC50 in assay [5] of 0.038 µM.

In assay [5], `NC(N)=N/N=C1\c2cc(F)ccc2CC1Sc1nc2ccccc2s1` (configuration not stated) had an IC50 of 0.287 µM.

As for `NC(N)=N/N=C1\c2cc(Cl)cc(Cl)c2CC1Sc1nc2ccccc2[nH]1` (configuration not stated), it took 0.654 µM to reach half-maximal inhibition in assay [5] (IC50).

Compound `NC(N)=N/N=C1\c2cc(Cl)ccc2CC1Sc1nc2cc([N+](=O)[O-])ccc2[nH]1` (configuration not stated) returned an IC50 in assay [5] of 0.0389 µM.

`COc1cc2c(c(OC)c1OC)CC(Sc1nc3cc([N+](=O)[O-])ccc3[nH]1)/C2=N/N=C(N)N` (configuration not stated): the midpoint of inhibition in assay [5], the IC50, lay at 0.0315 µM.

In assay [5], `NC(N)=N/N=C1\c2cc(Cl)ccc2CC1Sc1nc2ccccc2[nH]1` (configuration not stated) registered a half-maximal inhibitory concentration (IC50) of 0.326 µM.

`COc1cc2c(c(OC)c1OC)CC(Sc1nc3ccccc3[nH]1)/C2=N/N=C(N)N` (configuration not stated): it took 0.0108 µM to reach half-maximal inhibition in assay [5] (IC50).

In the case of `Cl.Cl.NC(N)=N/N=C1\c2ccccc2CC1Sc1nc2ccccc2[nH]1` (configuration not stated), the Activity in the assay with Rattus norvegicus [1] turned out to be 3.02 U/ml; in the assay with Rattus norvegicus [3] it was 42.89%. Besides, the half-maximal inhibitory concentration (IC50) in assay [5] was 0.00173 µM.

In assay [5], `COc1ccc2[nH]c(SC3Cc4ccc(F)cc4/C3=N\N=C(N)N)nc2c1` (configuration not stated) showed a half-inhibitory concentration (IC50) of 0.0255 µM.

With `NC(N)=N/N=C1\c2cc(Cl)ccc2CC1Sc1nc2ccccc2s1` (configuration not stated), the IC50 in assay [5] came to 0.0346 µM.

For `COc1cc2c(c(OC)c1OC)CC(Sc1nc3ccccc3s1)/C2=N/N=C(N)N` (configuration not stated), half-maximal inhibition in assay [5] (IC50) required 0.00198 µM.
